Reference: the kinase profiling compilation of Christmann-Franck et al. (2016)

Experiments:
Experiment in all cases: radiometric filter-binding kinase assay
[1] = system: AKT1 (human), P31749 [S473D]
AURKA (human) = AURKA (human) (UniProt O14965)
BRSK1 (human) = BRSK1 (human) (UniProt Q8TDC3)
DYRK2 (human) = DYRK2 (human) (UniProt Q92630)
EEF2K (human) = EEF2K (human) (UniProt O00418)
EPHA2 (human) = EPHA2 (human) (UniProt P29317)
EPHB3 (human) = EPHB3 (human) (UniProt P54753); conditions: compound 10.0 µM
ERBB4 (human) = ERBB4 (human) (UniProt Q15303)
GSK3B (human) = GSK3B (human) (UniProt P49841)
HIPK3 (human) = HIPK3 (human) (UniProt Q9H422)
HIPK3 (human), sequence (Q9H422 whole entry, looked up): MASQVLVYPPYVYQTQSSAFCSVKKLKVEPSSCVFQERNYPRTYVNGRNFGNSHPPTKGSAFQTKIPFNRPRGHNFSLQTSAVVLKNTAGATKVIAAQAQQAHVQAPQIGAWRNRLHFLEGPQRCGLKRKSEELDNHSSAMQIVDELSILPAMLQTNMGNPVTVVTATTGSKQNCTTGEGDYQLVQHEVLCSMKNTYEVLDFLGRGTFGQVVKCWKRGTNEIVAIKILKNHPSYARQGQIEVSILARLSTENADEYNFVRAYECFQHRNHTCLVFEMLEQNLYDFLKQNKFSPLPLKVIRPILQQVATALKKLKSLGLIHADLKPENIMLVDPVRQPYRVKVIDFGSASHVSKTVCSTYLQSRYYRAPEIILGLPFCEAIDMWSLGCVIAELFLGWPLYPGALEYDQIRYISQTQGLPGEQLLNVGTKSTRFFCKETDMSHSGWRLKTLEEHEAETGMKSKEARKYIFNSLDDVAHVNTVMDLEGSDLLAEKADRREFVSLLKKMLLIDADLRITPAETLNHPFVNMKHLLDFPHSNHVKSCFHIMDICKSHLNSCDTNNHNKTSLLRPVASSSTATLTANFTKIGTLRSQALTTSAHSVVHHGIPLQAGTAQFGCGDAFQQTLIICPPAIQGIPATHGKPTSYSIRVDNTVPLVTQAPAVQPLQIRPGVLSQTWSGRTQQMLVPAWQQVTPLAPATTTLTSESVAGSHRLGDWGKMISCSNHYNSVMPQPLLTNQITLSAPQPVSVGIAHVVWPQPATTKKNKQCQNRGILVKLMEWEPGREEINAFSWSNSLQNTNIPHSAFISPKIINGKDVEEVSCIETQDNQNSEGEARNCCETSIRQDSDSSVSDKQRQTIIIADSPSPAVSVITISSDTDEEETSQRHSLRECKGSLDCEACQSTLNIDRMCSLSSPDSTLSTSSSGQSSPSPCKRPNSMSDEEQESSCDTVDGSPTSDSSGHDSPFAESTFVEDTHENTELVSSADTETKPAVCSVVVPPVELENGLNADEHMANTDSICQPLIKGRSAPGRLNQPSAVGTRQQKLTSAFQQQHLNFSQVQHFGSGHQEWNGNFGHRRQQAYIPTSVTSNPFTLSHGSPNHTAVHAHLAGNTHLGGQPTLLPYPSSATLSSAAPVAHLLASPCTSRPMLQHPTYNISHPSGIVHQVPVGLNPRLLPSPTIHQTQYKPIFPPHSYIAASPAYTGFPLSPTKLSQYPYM

INSR (human) = INSR (human) (UniProt P06213)
IRAK4 (human) = IRAK4 (human) (UniProt Q9NWZ3)
MAP2K2 (human) = MAP2K2 (human) (UniProt P36507)
MAP2K2 (human), sequence (P36507 whole entry, looked up): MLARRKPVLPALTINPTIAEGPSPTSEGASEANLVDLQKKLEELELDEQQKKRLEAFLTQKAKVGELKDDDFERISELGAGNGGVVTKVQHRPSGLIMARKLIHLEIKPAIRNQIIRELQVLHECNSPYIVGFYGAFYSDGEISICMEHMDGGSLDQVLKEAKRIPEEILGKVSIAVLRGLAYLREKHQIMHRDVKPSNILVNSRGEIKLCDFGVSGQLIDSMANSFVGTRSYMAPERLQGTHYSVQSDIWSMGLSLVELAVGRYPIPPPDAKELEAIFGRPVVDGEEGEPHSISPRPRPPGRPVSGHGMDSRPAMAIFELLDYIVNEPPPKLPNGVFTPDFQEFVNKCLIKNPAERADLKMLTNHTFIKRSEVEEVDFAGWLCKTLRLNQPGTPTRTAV

MAP2K6 (human) = MAP2K6 (human) (UniProt P52564)
MAP3K1 (human) = MAP3K1 (human) (UniProt Q13233)
MAP3K11 (human) = MAP3K11 (human) (UniProt Q16584)
MAP3K5 (human) = MAP3K5 (human) (UniProt Q99683)
MAP3K5 (human), sequence (Q99683 whole entry, looked up): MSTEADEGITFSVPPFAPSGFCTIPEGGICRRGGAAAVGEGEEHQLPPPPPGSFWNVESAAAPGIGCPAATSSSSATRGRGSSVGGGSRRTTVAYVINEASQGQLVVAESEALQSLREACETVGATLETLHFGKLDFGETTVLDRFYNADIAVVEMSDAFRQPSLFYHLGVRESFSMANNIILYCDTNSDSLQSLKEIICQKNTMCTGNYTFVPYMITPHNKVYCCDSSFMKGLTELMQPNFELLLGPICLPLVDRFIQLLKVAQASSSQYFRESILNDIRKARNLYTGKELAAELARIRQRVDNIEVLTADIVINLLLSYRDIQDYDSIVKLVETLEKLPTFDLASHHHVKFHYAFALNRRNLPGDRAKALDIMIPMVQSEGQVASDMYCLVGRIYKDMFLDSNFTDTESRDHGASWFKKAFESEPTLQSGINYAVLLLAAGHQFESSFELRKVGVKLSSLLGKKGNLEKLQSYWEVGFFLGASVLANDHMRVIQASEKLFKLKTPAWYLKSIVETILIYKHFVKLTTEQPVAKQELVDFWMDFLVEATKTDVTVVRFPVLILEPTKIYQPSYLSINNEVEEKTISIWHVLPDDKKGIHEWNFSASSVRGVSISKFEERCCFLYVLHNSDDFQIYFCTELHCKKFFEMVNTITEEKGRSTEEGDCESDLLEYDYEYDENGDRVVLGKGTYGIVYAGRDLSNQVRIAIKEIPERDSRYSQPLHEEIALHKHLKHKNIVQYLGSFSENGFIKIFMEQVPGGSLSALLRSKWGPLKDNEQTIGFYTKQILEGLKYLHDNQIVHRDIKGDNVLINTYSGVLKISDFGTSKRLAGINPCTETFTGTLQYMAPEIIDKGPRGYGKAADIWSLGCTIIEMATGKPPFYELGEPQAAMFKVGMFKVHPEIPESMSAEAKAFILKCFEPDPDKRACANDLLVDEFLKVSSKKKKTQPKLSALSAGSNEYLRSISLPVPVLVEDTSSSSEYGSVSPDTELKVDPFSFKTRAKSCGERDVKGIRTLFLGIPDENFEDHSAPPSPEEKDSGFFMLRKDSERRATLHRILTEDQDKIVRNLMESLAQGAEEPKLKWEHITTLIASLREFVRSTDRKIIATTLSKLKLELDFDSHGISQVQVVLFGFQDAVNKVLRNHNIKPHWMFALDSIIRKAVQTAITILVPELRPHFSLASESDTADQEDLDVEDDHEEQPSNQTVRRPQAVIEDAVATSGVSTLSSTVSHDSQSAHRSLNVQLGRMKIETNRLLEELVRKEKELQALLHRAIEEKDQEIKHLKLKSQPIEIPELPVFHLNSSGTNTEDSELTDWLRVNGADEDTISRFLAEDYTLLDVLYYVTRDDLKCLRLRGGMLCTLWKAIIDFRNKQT

MAP3K7 TAB1 (human) = MAP3K7 TAB1 (human) (UniProt Q15750+O43318)
MAP3K9 (human) = MAP3K9 (human) (UniProt P80192)
MAPK12 (human) = MAPK12 (human) (UniProt P53778)
MAPK12 (human), sequence (P53778 whole entry, looked up): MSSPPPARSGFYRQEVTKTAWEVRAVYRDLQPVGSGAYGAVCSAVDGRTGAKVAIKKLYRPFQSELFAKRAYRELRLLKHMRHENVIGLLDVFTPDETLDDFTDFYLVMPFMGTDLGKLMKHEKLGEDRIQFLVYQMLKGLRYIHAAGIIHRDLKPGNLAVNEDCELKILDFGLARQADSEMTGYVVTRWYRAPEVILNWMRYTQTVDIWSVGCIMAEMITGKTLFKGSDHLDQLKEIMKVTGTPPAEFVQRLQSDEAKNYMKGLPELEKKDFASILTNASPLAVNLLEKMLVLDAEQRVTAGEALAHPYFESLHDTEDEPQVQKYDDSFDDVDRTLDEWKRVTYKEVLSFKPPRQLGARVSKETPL

MAPK9 (human) = MAPK9 (human) (UniProt P45984)
MAPKAPK2 (human) = MAPKAPK2 (human) (UniProt P49137)
MARK1 (human) = MARK1 (human) (UniProt Q9P0L2)
MARK2 (human) = MARK2 (human) (UniProt Q7KZI7)
MARK4 (human) = MARK4 (human) (UniProt Q96L34)
MELK (human) = MELK (human) (UniProt Q14680)
MST4 (human) = MST4 (human) (UniProt Q9P289)
NTRK1 (human) = NTRK1 (human) (UniProt P04629)
NTRK1 (human), sequence (P04629 whole entry, looked up): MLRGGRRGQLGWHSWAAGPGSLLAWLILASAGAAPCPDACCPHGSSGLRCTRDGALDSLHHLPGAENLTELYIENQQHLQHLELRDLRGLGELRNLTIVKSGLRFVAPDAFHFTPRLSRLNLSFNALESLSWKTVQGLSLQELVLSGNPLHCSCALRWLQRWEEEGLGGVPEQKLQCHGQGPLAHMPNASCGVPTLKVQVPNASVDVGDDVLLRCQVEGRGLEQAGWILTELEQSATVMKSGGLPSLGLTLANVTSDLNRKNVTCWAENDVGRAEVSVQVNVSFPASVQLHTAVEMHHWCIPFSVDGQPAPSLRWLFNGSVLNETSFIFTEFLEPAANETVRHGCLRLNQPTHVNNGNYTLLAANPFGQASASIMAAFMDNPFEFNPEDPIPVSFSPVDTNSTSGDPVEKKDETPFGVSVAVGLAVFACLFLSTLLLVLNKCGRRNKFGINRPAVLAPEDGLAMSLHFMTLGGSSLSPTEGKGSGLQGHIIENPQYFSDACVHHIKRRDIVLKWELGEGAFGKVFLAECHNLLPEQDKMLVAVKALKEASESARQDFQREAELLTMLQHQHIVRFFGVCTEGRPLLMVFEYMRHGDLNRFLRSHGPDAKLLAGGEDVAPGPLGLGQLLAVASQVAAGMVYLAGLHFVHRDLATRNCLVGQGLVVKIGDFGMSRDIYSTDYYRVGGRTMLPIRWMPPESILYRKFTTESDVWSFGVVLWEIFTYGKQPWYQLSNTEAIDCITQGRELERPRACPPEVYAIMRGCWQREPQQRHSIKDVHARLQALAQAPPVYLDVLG

NUAK1 (human) = NUAK1 (human) (UniProt O60285)
PAK4 (human) = PAK4 (human) (UniProt O96013)
PAK6 (human) = PAK6 (human) (UniProt Q9NQU5)
PIM1 (human) = PIM1 (human) (UniProt P11309)
PKN2 (human) = PKN2 (human) (UniProt Q16513)
PRKCA (human) = PRKCA (human) (UniProt P17252)
PRKCZ (human) = PRKCZ (human) (UniProt Q05513)
[2] = target: STK11 CAB39 STRADA (human) (UniProt Q9Y376+Q7RTN6+Q15831)

BRSK1 (human), sequence (Q8TDC3 whole entry, looked up): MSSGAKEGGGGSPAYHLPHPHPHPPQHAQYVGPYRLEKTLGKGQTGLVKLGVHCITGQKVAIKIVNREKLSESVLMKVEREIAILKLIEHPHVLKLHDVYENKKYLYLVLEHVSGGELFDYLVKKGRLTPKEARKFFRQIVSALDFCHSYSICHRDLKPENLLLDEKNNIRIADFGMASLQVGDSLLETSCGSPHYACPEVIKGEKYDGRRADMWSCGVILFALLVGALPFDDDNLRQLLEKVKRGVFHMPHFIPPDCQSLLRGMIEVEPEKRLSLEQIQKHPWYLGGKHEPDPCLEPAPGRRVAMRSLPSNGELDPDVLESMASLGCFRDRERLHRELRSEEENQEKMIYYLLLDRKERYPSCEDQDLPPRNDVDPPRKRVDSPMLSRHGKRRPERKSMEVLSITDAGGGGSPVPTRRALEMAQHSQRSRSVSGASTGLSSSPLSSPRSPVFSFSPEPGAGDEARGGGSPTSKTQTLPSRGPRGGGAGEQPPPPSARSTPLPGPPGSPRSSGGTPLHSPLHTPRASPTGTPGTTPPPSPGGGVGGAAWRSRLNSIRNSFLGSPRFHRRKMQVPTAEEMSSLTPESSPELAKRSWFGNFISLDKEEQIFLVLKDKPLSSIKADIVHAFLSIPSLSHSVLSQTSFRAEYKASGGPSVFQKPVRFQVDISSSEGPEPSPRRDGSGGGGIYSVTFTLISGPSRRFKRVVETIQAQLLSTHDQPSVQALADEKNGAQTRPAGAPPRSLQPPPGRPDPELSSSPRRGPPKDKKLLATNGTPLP

SMILES: CCNc1nc(Nc2cc(F)c(C(=O)N3CCOCC3)cc2OC)ncc1C(F)(F)F
- residual activity ([1]; compound 1.0 µM): 102%
- residual activity ([1]; compound 10.0 µM): 87%
- residual activity (AURKA (human); compound 1.0 µM): 97%
- residual activity (AURKA (human); compound 10.0 µM): 55%
- residual activity (BRSK1 (human); compound 1.0 µM): 82%
- residual activity (BRSK1 (human); compound 10.0 µM): 50%
- residual activity (DYRK2 (human); compound 1.0 µM): 50%
- residual activity (DYRK2 (human); compound 10.0 µM): 17%
- residual activity (EEF2K (human); compound 1.0 µM): 116%
- residual activity (EEF2K (human); compound 10.0 µM): 107%
- residual activity (EPHA2 (human); compound 1.0 µM): 107%
- residual activity (EPHA2 (human); compound 10.0 µM): 86%
- residual activity (EPHB3 (human)): 83%
- residual activity (ERBB4 (human); compound 1.0 µM): 97%
- residual activity (ERBB4 (human); compound 10.0 µM): 70%
- residual activity (GSK3B (human); compound 1.0 µM): 90%
- residual activity (GSK3B (human); compound 10.0 µM): 83%
- residual activity (HIPK3 (human); compound 1.0 µM): 107%
- residual activity (HIPK3 (human); compound 10.0 µM): 98%
- residual activity (INSR (human); compound 1.0 µM): 19%
- residual activity (INSR (human); compound 10.0 µM): 2%
- residual activity (IRAK4 (human); compound 1.0 µM): 103%
- residual activity (IRAK4 (human); compound 10.0 µM): 83%
- residual activity (MAP2K2 (human); compound 1.0 µM): 93%
- residual activity (MAP2K2 (human); compound 10.0 µM): 90%
- residual activity (MAP2K6 (human); compound 1.0 µM): 72%
- residual activity (MAP2K6 (human); compound 10.0 µM): 31%
- residual activity (MAP3K1 (human); compound 1.0 µM): 104%
- residual activity (MAP3K1 (human); compound 10.0 µM): 99%
- residual activity (MAP3K11 (human); compound 1.0 µM): 23%
- residual activity (MAP3K11 (human); compound 10.0 µM): 5%
- residual activity (MAP3K5 (human); compound 1.0 µM): 44%
- residual activity (MAP3K5 (human); compound 10.0 µM): 10%
- residual activity (MAP3K7 TAB1 (human); compound 1.0 µM): 17%
- residual activity (MAP3K7 TAB1 (human); compound 10.0 µM): 2%
- residual activity (MAP3K9 (human); compound 1.0 µM): 25%
- residual activity (MAP3K9 (human); compound 10.0 µM): 3%
- residual activity (MAPK12 (human); compound 1.0 µM): 99%
- residual activity (MAPK12 (human); compound 10.0 µM): 102%
- residual activity (MAPK9 (human); compound 1.0 µM): 104%
- residual activity (MAPK9 (human); compound 10.0 µM): 89%
- residual activity (MAPKAPK2 (human); compound 1.0 µM): 107%
- residual activity (MAPKAPK2 (human); compound 10.0 µM): 85%
- residual activity (MARK1 (human); compound 1.0 µM): 97%
- residual activity (MARK1 (human); compound 10.0 µM): 58%
- residual activity (MARK2 (human); compound 1.0 µM): 98%
- residual activity (MARK2 (human); compound 10.0 µM): 73%
- residual activity (MARK4 (human); compound 1.0 µM): 91%
- residual activity (MARK4 (human); compound 10.0 µM): 67%
- residual activity (MELK (human); compound 1.0 µM): 90%
- residual activity (MELK (human); compound 10.0 µM): 43%
- residual activity (MST4 (human); compound 1.0 µM): 86%
- residual activity (MST4 (human); compound 10.0 µM): 74%
- residual activity (NTRK1 (human); compound 1.0 µM): 81%
- residual activity (NTRK1 (human); compound 10.0 µM): 63%
- residual activity (NUAK1 (human); compound 1.0 µM): 13%
- residual activity (NUAK1 (human); compound 10.0 µM): 2%
- residual activity (PAK4 (human); compound 1.0 µM): 92%
- residual activity (PAK4 (human); compound 10.0 µM): 32%
- residual activity (PAK6 (human); compound 1.0 µM): 107%
- residual activity (PAK6 (human); compound 10.0 µM): 93%
- residual activity (PIM1 (human); compound 1.0 µM): 94%
- residual activity (PIM1 (human); compound 10.0 µM): 99%
- residual activity (PKN2 (human); compound 1.0 µM): 73%
- residual activity (PKN2 (human); compound 10.0 µM): 65%
- residual activity (PRKCA (human); compound 1.0 µM): 95%
- residual activity (PRKCA (human); compound 10.0 µM): 97%
- residual activity (PRKCZ (human); compound 1.0 µM): 99%
- residual activity (PRKCZ (human); compound 10.0 µM): 83%
- residual activity ([2]; compound 1.0 µM): 89%
- residual activity ([2]; compound 10.0 µM): 86%
